Seven compounds from BindingDB's records for doi:10.1016/0006-2952(92)90616-q (National Institutes of Diabetes and Digestive and Kidney …, 1992) can be followed below.

Test [1] addresses Adenosine receptor A2a (Rattus norvegicus, UniProt P30543).
The target of test [2] is T1, Adenosine receptor A1 (Rattus norvegicus, UniProt P25099).
T1 sequence (P25099 whole entry): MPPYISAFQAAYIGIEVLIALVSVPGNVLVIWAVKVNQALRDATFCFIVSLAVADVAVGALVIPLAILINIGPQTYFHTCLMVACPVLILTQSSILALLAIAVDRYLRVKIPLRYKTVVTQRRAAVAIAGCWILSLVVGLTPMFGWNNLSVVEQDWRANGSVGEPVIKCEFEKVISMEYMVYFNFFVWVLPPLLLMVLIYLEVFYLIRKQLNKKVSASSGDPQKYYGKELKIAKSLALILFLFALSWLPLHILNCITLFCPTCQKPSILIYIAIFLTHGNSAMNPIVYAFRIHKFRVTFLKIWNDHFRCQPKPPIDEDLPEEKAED

Adenosine receptor A2a, sequence (P30543 whole entry): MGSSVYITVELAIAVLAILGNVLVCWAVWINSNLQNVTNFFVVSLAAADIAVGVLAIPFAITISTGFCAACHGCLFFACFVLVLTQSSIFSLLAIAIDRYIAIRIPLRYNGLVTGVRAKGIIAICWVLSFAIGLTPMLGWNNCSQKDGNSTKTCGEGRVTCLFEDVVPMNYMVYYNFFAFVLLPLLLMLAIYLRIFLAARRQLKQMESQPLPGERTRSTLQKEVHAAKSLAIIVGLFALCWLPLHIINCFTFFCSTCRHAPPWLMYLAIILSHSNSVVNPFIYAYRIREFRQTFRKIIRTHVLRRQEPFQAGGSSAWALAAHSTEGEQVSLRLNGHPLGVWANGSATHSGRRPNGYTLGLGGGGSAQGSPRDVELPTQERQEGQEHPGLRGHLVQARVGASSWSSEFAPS

As a reminder, the Ki is a measure of affinity in units of concentration, obtained from inhibition or displacement. Low values mean tighter binding, high ones weaker binding. In the case of `OC[C@H]1O[C@@H](n2cnc3c(NC4CCCC4)ncnc32)[C@H](O)[C@@H]1O`, in test [1], the inhibitory constant (Ki) amounted to 510 nM. As for `CSC[C@H]1O[C@@H](n2cnc3c(NC4CCCC4)nc(F)nc32)[C@H](O)[C@@H]1O` [2-Fluoro-5'-Methylthio Adenosine], the inhibition constant (Ki) was determined as 950 nM in test [1] and 84 nM in test [2]. `Nc1nc(F)nc2c1ncn2[C@@H]1O[C@H](CO)[C@@H](O)[C@H]1O` [2-FluoroAdo]: the Ki in test [1] worked out at 28 nM; in test [2] it was 5.9 nM.

For the compound `Nc1ncnc2c1ncn2[C@@H]1O[C@H](Cl)[C@@H](O)[C@H]1O` [5'-Chloro Adenosine], the results for the Ki in test [1] and in test [2] were 140 nM and 20 nM, respectively.

Regarding `CSC[C@H]1O[C@@H](n2cnc3c(NC4CCCC4)ncnc32)[C@H](O)[C@@H]1O` [5'-Methylthio Adenosine], the figures for the inhibition constant Ki in test [1] and in test [2] were 1180 nM and 243 nM, respectively. Turning to `CCNC(=O)C1OC(n2cnc3c(NC4CCCCC4)ncnc32)C(O)C1O` (stereo not drawn) [N6-CyclohexylNECA], the figures for the Ki in test [1] and in test [2] were 170 nM and 0.43 nM, respectively. For `O[C@@H]1[C@H](O)[C@@H](Cl)O[C@H]1n1cnc2c(NC3CCCC3)ncnc21` [N6-Cyclopentyl-5'chloro Adenosine], in that order: 1360 nM and 0.63 nM.
